# Data taken from US20100256109A1, “Azetidines As EP2 Antagonists” (priority 2007, published 2010).
# Biological target: T1, recombinant human EP-2 receptor (Homo sapiens, UniProt P43116)
# T1 construct: stably transfected with full length cDNA encoding human Prostaglandin E2; expressed in transfected cells
# Assay: In vitro antagonist potency against recombinant human prostaglandin E2 (EP-2) receptor in CHO cells (cAMP)
# Type: cell-based
# Conditions: CHO cells expressing recombinant human EP-2 receptor, stimulated with PGE2 5 nM; cAMP readout; Ki from IC50 by Cheng-Prusoff; read-out: EP2 Ki
# Protocol: 1.0 Measurement of In Vitro Antagonist Potency (IC50) of Compounds Against Recombinant Human Prostaglandin E2 Receptor in CHO Cells.
# The prostaglandin E2 (EP-2) receptor is Gs coupled and agonism of the receptor by PGE2 results in activation of intracellular adenylate cyclase enzymes that synthesise the second messenger signalling molecule, adenosine 3′,5′-cyclic monophosphate (cAMP). CHO cells expressing the recombinant human EP-2 receptor are stimulated with PGE2 (5 nM) equivalent to approximately […] values to give the maximal cAMP signal. Decreases in cAMP levels following treatment of stimulated recombinant EP-2 cells with potential antagonist compounds were measured and potency (IC50) calculated as follows.
# A Chinese hamster ovary (CHO) cell line stably transfected with full length cDNA encoding human Prostaglandin E2 was established using standard molecular biology methods. Test compounds were dissolved in dimethyl sulphoxide (DMSO) at 4 mM. 11 point half log unit increment dilution series of test compound were prepared in DMSO then diluted 1 in 40 in a buffer comprised of phosphate buffered saline (PBS) and 0.05% pluronic F-127 surfactant. Freshly cultured cells at 80-90% confluence were harvested and re-suspended in 90% growth media/10% DMSO. The cells were frozen using a planar freezer and stored in frozen aliquots in cryovials in liquid nitrogen until the day of the experiment. A vial of cells was defrosted in a 37° C. water bath for 2 min, then transferred to 10 ml of Dulbecco's Modified Eagle's Medium (DMEM). The cells were then centrifuged for 5 min at 1000 g and the pellet re-suspended at 1,000,000 cells/ml in DMEM. 5,000 cells (5 ul) were added to 5 ul of the compound dilution series in a 384 well assay plate and pre-incubated for 30 min at 37° C. 5 ul of agonist (15 nM PGE2 in PBS to give 5 nM FAC) was added and plates further incubated for 90 min at 37° C. The relative cAMP concentration in each well was then measured using a β-galactosidase enzyme fragment complementation method purchased in kit form as the Discoverx cAMP II kit from GE Healthcare, UK. […] Sigmoidal curves were fitted to plots of log10 inhibitor concentration vs. percent effect. IC50 estimates were determined as the concentration of test compound giving an effect half way between the bottom and top asymptotes of the sigmoidal dose response curve. Each experiment included an IC50 determination for the literature compound as a standard to track assay consistency and allow fair comparison between values obtained in different experiments. The EC50 of PGE2 is used in combination with the ligand concentration in the assay to determine Ki values for antagonist dose responses using the Cheng-Prusoff equation. Consequently an agonist dose response curve is carried out for each experiment using the same incubation as the antagonist plate.
# T1 sequence (P43116 whole entry): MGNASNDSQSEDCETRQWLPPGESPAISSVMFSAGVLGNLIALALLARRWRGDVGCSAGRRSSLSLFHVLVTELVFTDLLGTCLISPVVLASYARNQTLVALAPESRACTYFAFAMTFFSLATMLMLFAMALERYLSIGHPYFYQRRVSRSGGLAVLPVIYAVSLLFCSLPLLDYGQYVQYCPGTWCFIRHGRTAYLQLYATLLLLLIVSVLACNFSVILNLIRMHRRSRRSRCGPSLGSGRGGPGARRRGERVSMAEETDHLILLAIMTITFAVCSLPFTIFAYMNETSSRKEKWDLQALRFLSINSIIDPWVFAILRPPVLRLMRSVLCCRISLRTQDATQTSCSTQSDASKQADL
row,SMILES,Ki [µM]
1,O=C(c1ccc(Cl)cc1)N1CC(Cn2nnc(-c3cc(Cl)cc(Cl)c3)n2)(C(=O)O)C1 [Example 10],0.00102
2,O=C(c1ccc(Cl)cc1)N1CC(Cn2nnc(-c3ccc(Cl)cc3)n2)(C(=O)O)C1 [Example 6],0.00242
3,O=C(c1ccc(F)cc1)N1CC(Cn2nnc(-c3cccc(Oc4ccccc4)c3)n2)(C(=O)O)C1 [Example 21],0.141
4,CCC(=O)Nc1ccc(-c2nnn(CC3(C(=O)O)CN(C(=O)c4ccc(Cl)cc4)C3)n2)cc1 [Example 7],0.000816
5,COc1ccc(-c2nnn(CC3(C(=O)O)CN(C(=O)c4ccc(F)cc4)C3)n2)cc1 [Example 28],0.0108
6,O=C(c1ccc(Cl)cc1)N1CC(Cn2nnc(-c3ccc(C(F)(F)F)cc3)n2)(C(=O)O)C1 [Example 5],0.00164
7,CCc1ccc(-c2nnn(CC3(C(=O)O)CN(C(=O)c4ccc(F)cc4)C3)n2)cc1 [Example 23],0.00137
8,COc1cccc(-c2nnn(CC3(C(=O)O)CN(C(=O)c4ccc(F)cc4)C3)n2)c1 [Example 20],0.0116
9,COc1ccccc1-c1nnn(CC2(C(=O)O)CN(C(=O)c3ccc(F)cc3)C2)n1 [Example 16],0.442
10,O=C(c1ccc(F)cc1)N1CC(Cn2nnc(-c3ccc(Cl)cc3)n2)(C(=O)O)C1 [Example 25],0.02
11,O=C(c1ccc(Cl)cc1)N1CC(Cn2nnc(-c3ccc(Cl)c(Cl)c3)n2)(C(=O)O)C1 [Example 9],0.000864
12,O=C(c1ccc(F)cc1)N1CC(Cn2nnc(-c3ccccc3C(F)(F)F)n2)(C(=O)O)C1 [Example 15],0.733
13,CCC(=O)Nc1ccc(-c2nnn(CC3(C(=O)O)CN(C(=O)c4ccc(F)cc4)C3)n2)cc1 [Example 32],0.0103
14,Cc1ccc(-c2nnn(CC3(C(=O)O)CN(C(=O)c4ccc(Cl)cc4)C3)n2)cc1 [Example 4],0.00145
15,O=C(c1ccc(Cl)cc1)N1CC(Cn2nnc(-c3cccc(F)c3)n2)(C(=O)O)C1 [Example 3],0.0111
16,Cc1ccccc1-c1nnn(CC2(C(=O)O)CN(C(=O)c3ccc(F)cc3)C2)n1 [Example 12],0.0778
17,Cc1ccc(-c2nnn(CC3(C(=O)O)CN(C(=O)c4ccc(Cl)cc4)C3)n2)cc1Cl [Example 8],0.000423
18,O=C(c1ccc(F)cc1)N1CC(Cn2nnc(-c3ccc(OC(F)F)cc3)n2)(C(=O)O)C1 [Example 30],0.0147
19,O=C(c1ccc(Cl)cc1)N1CC(Cn2nnc(-c3cccc(Cl)c3)n2)(C(=O)O)C1 [Example 2],0.00351
20,O=C(c1ccc(F)cc1)N1CC(Cn2nnc(-c3ccccc3Cl)n2)(C(=O)O)C1 [Example 14],0.22
21,O=C(c1ccc(F)cc1)N1CC(Cn2nnc(-c3ccccc3F)n2)(C(=O)O)C1 [Example 13],0.0873
22,Cc1cccc(-c2nnn(CC3(C(=O)O)CN(C(=O)c4ccc(F)cc4)C3)n2)c1 [Example 17],0.0148
23,O=C(c1ccc(F)cc1)N1CC(Cn2nnc(-c3ccc(F)cc3)n2)(C(=O)O)C1 [Example 26],0.0748
24,"O=C(c1ccccc1)N1CC(Cn2nnc(-c3ccccc3)n2)(C(=O)O)C1 [Example 1, 1-Benzoyl-3-[(5-phenyl-2H-tetrazol-2-yl)methyl]azetidine-3-carboxylic acid]",0.225

# Results, then the compound that gave them:
row,Ki [µM],SMILES
1,0.0449,"COc1cc(OC)cc(C(=O)N2CC(Cn3nnc(-c4ccc(C(F)(F)F)cc4)n3)(C(=O)O)C2)c1 [Example 46, 1-(3,5-Dimethoxybenzoyl)-3-({5-[4-(trifluoromethyl)phenyl]-2H-tetrazol-2-yl}methyl)azetidine-3-carboxylic acid]"
2,0.44,CCc1ccccc1NC(=O)N1CC(Cn2nnc(-c3cccc(F)c3)n2)(C(=O)O)C1 [Example 69]
3,0.303,"COc1cccc(NC(=O)N2CC(Cn3nnc(-c4cccc(F)c4)n3)(C(=O)O)C2)c1 [Example 68, 3-{[5-(3-fluorophenyl)-2H-tetrazol-2-yl]methyl}-1-{[(3-methoxyphenyl)amino]carbonyl}azetidine-3-carboxylic acid]"
4,0.23,COc1cc(OC)cc(C(=O)N2CC(Cn3nnc(-c4c(F)cccc4F)n3)(C(=O)O)C2)c1 [Example 65]
5,0.152,O=C(c1ccccc1)N1CC(Cn2nnc(-c3cccc(F)c3)n2)(C(=O)O)C1 [Example 47]
6,0.027,O=C(c1ccc(F)cc1)N1CC(Cn2nnc(-c3ccc(Cl)cc3Cl)n2)(C(=O)O)C1 [Example 38]
7,0.386,O=C(Nc1cccc(Cl)c1)N1CC(Cn2nnc(-c3cccc(F)c3)n2)(C(=O)O)C1 [Example 70]
8,0.453,COc1ccc(-c2nnn(CC3(C(=O)O)CN(C(=O)c4cccc(F)c4)C3)n2)cc1OC [Example 55]
9,0.262,O=C(c1ccc(F)cc1)N1CC(Cn2nnc(-c3c(F)cccc3F)n2)(C(=O)O)C1 [Example 42]
10,0.00747,O=C(c1ccc(Cl)cc1)N1CC(Cn2nnc(-c3c(F)cccc3F)n2)(C(=O)O)C1 [Example 61]
11,0.0399,O=C(c1ccc(F)cc1)N1CC(Cn2nnc(-c3cccc(Cl)c3Cl)n2)(C(=O)O)C1 [Example 39]
12,0.0137,O=C(c1ccc(F)cc1)N1CC(Cn2nnc(-c3cc(F)cc(Cl)c3)n2)(C(=O)O)C1 [Example 43]
13,0.176,COc1cccc(C(=O)N2CC(Cn3nnc(-c4ccc(C(C)(C)C)cc4)n3)(C(=O)O)C2)c1 [Example 56]
14,0.519,O=C(Nc1cccc(F)c1)N1CC(Cn2nnc(-c3ccc(Cl)s3)n2)(C(=O)O)C1 [Example 71]
15,0.446,CCOc1ccccc1C(=O)N1CC(Cn2nnc(-c3cccc(F)c3)n2)(C(=O)O)C1 [Example 52]
16,0.0419,COc1ccc(-c2nnn(CC3(C(=O)O)CN(C(=O)c4ccccc4)C3)n2)cc1OC [Example 49]

row,Ki [µM],SMILES
1,0.0668,O=C(c1ccc(F)cc1)N1CC(Cn2nnc(-c3ccc(F)c(F)c3)n2)(C(=O)O)C1 [Example 41]
2,0.222,COc1cc(OC)cc(C(=O)N2CC(Cn3nnc(-c4ccc(OC)c(OC)c4)n3)(C(=O)O)C2)c1 [Example 66]
3,0.0579,Cc1ccc(C(=O)N2CC(Cn3nnc(-c4c(F)cccc4F)n3)(C(=O)O)C2)cc1 [Example 59]
4,0.0325,CCOc1ccccc1C(=O)N1CC(Cn2nnc(-c3ccc(C(F)(F)F)cc3)n2)(C(=O)O)C1 [Example 53]
5,0.783,CCOc1ccccc1C(=O)N1CC(Cn2nnc(Cc3c(F)cccc3Cl)n2)(C(=O)O)C1 [Example 54]
6,1.96,O=C(c1c(F)cccc1F)N1CC(Cn2nnc(Cc3ccc(C(F)(F)F)cc3)n2)(C(=O)O)C1 [Example 63]
7,0.23,COc1ccc(-c2nnn(CC3(C(=O)O)CN(C(=O)c4c(F)cccc4F)C3)n2)cc1OC [Example 64]
8,0.538,CCOc1ccccc1C(=O)N1CC(Cn2nnc(-c3ccccc3)n2)(C(=O)O)C1 [Example 51]
9,0.959,COc1cccc(C(=O)N2CC(Cn3nnc(Cc4c(F)cccc4Cl)n3)(C(=O)O)C2)c1 [Example 57]
10,0.645,O=C(c1ccc(Cl)cc1)N1CC(Cn2nnc(Cc3ccc(C(F)(F)F)cc3)n2)(C(=O)O)C1 [Example 60]
11,0.0614,O=C(c1ccccc1)N1CC(Cn2nnc(-c3ccc(Cl)s3)n2)(C(=O)O)C1 [Example 50]
12,0.325,O=C(c1ccccc1)N1CC(Cn2nnc(-c3c(F)cccc3F)n2)(C(=O)O)C1 [Example 48]
13,0.0252,COc1ccc(C(=O)N2CC(Cn3nnc(-c4ccc(OC)c(OC)c4)n3)(C(=O)O)C2)cc1 [Example 62]
14,0.13,"O=C(Nc1cccc(Cl)c1Cl)N1CC(Cn2nnc(-c3ccccc3)n2)(C(=O)O)C1 [Example 67, 1-{[(2,3-dichlorophenyl)amino]carbonyl}-3-[(5-phenyl-2H-tetrazol-2-yl)methyl]azetidine-3-carboxylic acid]"
15,0.133,O=C(c1ccc(F)cc1)N1CC(Cn2nnc(-c3cc(C(F)(F)F)cc(C(F)(F)F)c3)n2)(C(=O)O)C1 [Example 44]
16,0.0763,COc1cccc(C(=O)N2CC(Cn3nnc(-c4ccc(OC)c(OC)c4)n3)(C(=O)O)C2)c1 [Example 58]
